{
  "source": "paper PMC12298827",
  "about": "“Subchronic Toxicities of Four Per- and Polyfluoroalkyl Substances (PFASs) by Oral Exposure in Sprague–Dawley Rats” (Toxics, 2025)",
  "key": {"male SD rats": {"test_system": "male SD rats", "assay": "Single-dose tolerability study, oral gavage", "assay_type": "in vivo, rat", "conditions": "single oral dose in corn oil, n = 3/dose", "experimental": "Tolerability, 14-day dose-range-finding, and 90-day subchronic toxicity studies were conducted at Inotiv (Gaithersburg, MD, USA), monitored by the Research Triangle Institute (RTI) (Durham, NC, USA) and sponsored and funded by the EPA. Tolerability studies used four PFAS dose levels plus a control, with the high doses not to exceed 1000 mg/kg (subject to solubility in corn oil, dose volume of 5 or 10 mL/kg) and lower doses separated by threefold spacing. The dose levels for PFHI, MHFPK, and CTFPA were […]. The dose levels for PFNAC were 0, 25, 75, 225, and 667 mg/kg. Tolerability was studied using male rats (n = 3 rats/group) that received a single dose by oral gavage. The rats were euthanized at 48 hours post dosing. The data collected were bodyweight (BW) and BW changes (BWCs), feed consumption (FC) and water consumption (WC), cage-side observations, and physical exams; no necropsies were performed."}, "[1]": {"assay": "Parent chemical in rat plasma, 14-day study", "assay_type": "in vivo", "conditions": "for concentration at 15 day: Sprague-Dawley, rat, plasma, oral; for Percentage of the dose in the plasma: 14 days", "experimental": "Dose-range-finding (14-day) studies were conducted using male and female rats to establish dose levels for 90-day studies and identify potential target organ toxicities. Male and female rats (n = 5 sex/group, a control and three dose groups, corn oil vehicle dose volume of 5 mL/kg) were administered PFASs by oral gavage daily for 14 days and euthanized on study day (SD) 15. The dose levels for PFHI, CTFPA, and MHFPK were 0, 30, 100, and 300 mg/kg-day. The dose levels for PFNAC were 0, 10, 30, and 100 mg/kg-day. The in vivo data collected included BW, BWCs, FC, cage-side observations, and physical exams. Gross necropsies, relative and absolute organ weights, and clinical chemistry data were collected for all the groups. Macroscopic and microscopic pathology examinations were conducted for the control and high-dose groups initially; the other groups were examined if justified by experimental findings. Plasma samples were analyzed ~2 h post dosing on day 1 and at day 15 for the parent PFAS chemical.\nOn SD 1 of the 14-day study (~2 h post dosing), 0.2 mL of blood was collected via tail vein puncture in tubes containing K3EDTA and stored on wet ice. Prior to the scheduled euthanasia, blood (~1 mL) was collected from the jugular vein in tubes containing K3EDTA and stored on wet ice on SD 15, for the 14-day study, and SD 91, for the 90-day study. All the tubes were centrifuged at an ~1500 relative centrifugal force within 1 h of collection for 15 min at 5 ± 3 °C. The plasma was stored at −75 ± 15 °C until the analysis. PFNAC and PFHI were analyzed using a headspace GC–mass spectrometry (MS) method, as summarized in Table S3, and CTFPA was analyzed using an ultra-HPLC-MS method, as summarized in Table S4. The MHFPK samples were not analyzed because a method suitable for plasma was not available. The details concerning the preparation of the samples, method blanks, and matrix and QC standards for the analysis are available in the appendices to the study reports."}, "[2]": {"conditions": "male, Day 1 (2 hours post dosing), 100 mg/kg-day"}, "[3]": {"conditions": "male, Day 1 (2 hours post dosing), 30 mg/kg-day"}, "[4]": {"conditions": "male, Day 1 (2 hours post dosing), 300 mg/kg-day"}},
  "data": [
    {"smiles": "C=CC(=O)OCC(F)(F)C(F)(F)C(F)(F)C(F)(F)C(F)(F)C(F)(F)C(F)(F)C(F)F", "note": "[PFNAC, 1H,1H,9H-Perfluorononyl acrylate]", "values": [
      {"measurement": "Summary of observations", "setting": "male SD rats", "result": "No mortality and no abnormal clinical observations, some lowering of bodyweight, bodyweight changes, and feed consumption in all the treated groups not reaching statistical significance"},
      {"measurement": "Parent chemical in plasma", "setting": "[1]; female, Day 1, 100 mg/kg-day", "result": "Parent chemical not detected at the highest dose"},
      {"measurement": "Parent chemical in plasma", "setting": "[1]; female, Day 15, 100 mg/kg-day", "result": "Parent chemical not detected at the highest dose"},
      {"measurement": "Parent chemical in plasma", "setting": "[1]; [2]", "result": "Parent chemical not detected at the highest dose"},
      {"measurement": "Parent chemical in plasma", "setting": "[1]; male, Day 15, 100 mg/kg-day", "result": "Parent chemical not detected at the highest dose"}
    ]},
    {"smiles": "O=C(O)C(F)(Cl)C(F)(F)F", "note": "(centres unmarked) [CTFPA, 2-Chloro-2,3,3,3-tetrafluoropropanoic acid]", "values": [
      {"measurement": "Summary of observations", "setting": "male SD rats", "result": "No mortality and no effect on absolute bodyweight gains or water consumption; clinical observations of low activity, decreased bodyweight and decreased feed consumption at high doses"},
      {"measurement": "concentration at 15 day", "setting": "[1]; female, Day 15, 30 mg/kg-day", "result": 27200, "unit": "ng/mL"},
      {"measurement": "concentration at 15 day", "setting": "[1]; female, Day 15, 100 mg/kg-day", "result": 45400, "unit": "ng/mL"},
      {"measurement": "concentration at 15 day", "setting": "[1]; female, Day 15, 300 mg/kg-day", "result": 123000, "unit": "ng/mL"},
      {"measurement": "concentration at 15 day", "setting": "[1]; male, Day 15, 30 mg/kg-day", "result": 49800, "unit": "ng/mL"},
      {"measurement": "concentration at 15 day", "setting": "[1]; male, Day 15, 100 mg/kg-day", "result": 99100, "unit": "ng/mL"},
      {"measurement": "concentration at 15 day", "setting": "[1]; male, Day 15, 300 mg/kg-day", "result": 120000, "unit": "ng/mL"},
      {"measurement": "Percentage of the dose in the plasma", "setting": "[1]; female, 100 mg/kg-day", "result": "1.75 ± 0.67", "unit": "%"},
      {"measurement": "Parent chemical in plasma", "setting": "[1]; female, Day 1, 30 mg/kg-day", "result": "46,700 ± 10,000 ng/mL"},
      {"measurement": "Parent chemical in plasma", "setting": "[1]; female, Day 1, 100 mg/kg-day", "result": "107,000 ± 30,400 ng/mL"},
      {"measurement": "Parent chemical in plasma", "setting": "[1]; female, Day 1, 300 mg/kg-day", "result": "297,000 ± 56,500 ng/mL"},
      {"measurement": "Percentage of the dose in the plasma", "setting": "[1]; male, 30 mg/kg-day", "result": "6.39 ± 2.03", "unit": "%"},
      {"measurement": "Parent chemical in plasma", "setting": "[1]; [3]", "result": "48,400 ± 8430 ng/mL"},
      {"measurement": "Parent chemical in plasma", "setting": "[1]; [2]", "result": "122,000 ± 43,800 ng/mL"},
      {"measurement": "Parent chemical in plasma", "setting": "[1]; [4]", "result": "321,000 ± 60,600 ng/mL"}
    ]},
    {"smiles": "CC(=O)C(F)(F)C(F)(F)C(F)(F)F", "note": "[MHFPK, Methyl heptafluoropropyl ketone]", "values": [
      {"measurement": "Summary of observations", "setting": "male SD rats", "result": "No mortality. Clinical signs of low activity and minimal ataxia on study day 1 at 1000 mg/kg, with recovery on the following two observation days"}
    ]},
    {"smiles": "FC(F)(F)C(F)(F)C(F)(F)C(F)(F)CCI", "note": "[PFHI, 1H,1H,2H,2H-Perfluorohexyl iodide]", "values": [
      {"measurement": "Summary of observations", "setting": "male SD rats", "result": "No mortality and no abnormal clinical observations, no effect on bodyweight; some bodyweight changes in high-dose group were considered as chemical-related"},
      {"measurement": "Lower plasma concentration for SD 15 compared to SD 1", "setting": "[1]; 14-day study", "result": "10- to 100 fold"},
      {"measurement": "concentration at 15 day", "setting": "[1]; female, Day 15, 300 mg/kg-day", "result": "14.3 ± 7.12", "unit": "ng/mL"},
      {"measurement": "concentration at 15 day", "setting": "[1]; male, Day 15, 100 mg/kg-day", "result": "4.87 ± 1.93", "unit": "ng/mL"},
      {"measurement": "concentration at 15 day", "setting": "[1]; male, Day 15, 300 mg/kg-day", "result": "26.7 ± 8.79", "unit": "ng/mL"},
      {"measurement": "Parent chemical in plasma", "setting": "[1]; female, Day 1, 30 mg/kg-day", "result": "14.7 ± 8.21", "unit": "ng/mL"},
      {"measurement": "Parent chemical in plasma", "setting": "[1]; female, Day 1, 100 mg/kg-day", "result": "470 ± 427", "unit": "ng/mL"},
      {"measurement": "Parent chemical in plasma", "setting": "[1]; female, Day 1, 300 mg/kg-day", "result": "1070 ± 689", "unit": "ng/mL"},
      {"measurement": "Parent chemical in plasma", "setting": "[1]; female, Day 15, 30 mg/kg-day", "result": "ND/BLOD"},
      {"measurement": "Parent chemical in plasma", "setting": "[1]; female, Day 15, 100 mg/kg-day", "result": "≤LOQ"},
      {"measurement": "Parent chemical in plasma", "setting": "[1]; [3]", "result": "159 ± 79.3", "unit": "ng/mL"},
      {"measurement": "Parent chemical in plasma", "setting": "[1]; [2]", "result": "333 ± 147", "unit": "ng/mL"},
      {"measurement": "Parent chemical in plasma", "setting": "[1]; [4]", "result": "2040 ± 1250", "unit": "ng/mL"},
      {"measurement": "Parent chemical in plasma", "setting": "[1]; male, Day 15, 30 mg/kg-day", "result": "<BLOD/≤LOQ"}
    ]}
  ]
}
